Columns and labels:
Format in all cases: functional
Rattus norvegicus [1] = species: Rattus norvegicus; experiment: Ability to enhance stimulated release of AcCh from striatum region of rat brain
Rattus norvegicus [2] = experiment: Tested for rat passive avoidance hypoxia induced amnesia at 3.0 mg/kg administered subcutaneously (p<0.025); settings: route subcutaneous
Rattus norvegicus [3] = experiment: Tested for rat passive avoidance hypoxia induced amnesia at 30.0 mg/kg administered subcutaneously (p<0.05); settings: route subcutaneous
Rattus norvegicus [4] = experiment: Tested for rat passive avoidance hypoxia induced amnesia at 0.3 mg/kg administered subcutaneously.; settings: route subcutaneous
Rattus norvegicus [5] = experiment: Tested for rat passive avoidance hypoxia induced amnesia at 100 mg/kg administered subcutaneously; settings: route subcutaneous
Rattus norvegicus [6] = species: Rattus norvegicus; experiment: Tested for rat passive avoidance hypoxia induced amnesia (no hypoxia)
Rattus norvegicus [7] = experiment: Tested for rat passive avoidance hypoxia induced amnesia at 10.0 mg/kg administered subcutaneously (p<0.025); settings: route subcutaneous
Rattus norvegicus [8] = experiment: Tested for rat passive avoidance hypoxia induced amnesia at 0.1 mg/kg administered subcutaneously; settings: route subcutaneous
Rattus norvegicus [9] = experiment: Tested for rat passive avoidance hypoxia induced amnesia at 1.0 mg/kg administered subcutaneously; settings: route subcutaneous

`CCOC(=O)CCC1(Cc2ccncc2)C(=O)N(c2ccccc2)c2ccccc21.Cl` (centres undefined) gave a Release (Rattus norvegicus [1]) of 57%.
For `O=C1N(c2ccccc2)c2ccccc2C1(CCCO)Cc1ccncc1` (centres undefined), the Release (Rattus norvegicus [1]) was 27%.
`Cl.O=C1N(c2ccccc2)c2ccccc2C1(CCCCO)Cc1ccncc1` (centres undefined) gave a Release (Rattus norvegicus [1]) of 29%.
`Cl.N#CCC1(Cc2ccncc2)C(=O)N(c2ccccc2)c2ccccc21` (centres undefined) showed a Release (Rattus norvegicus [1]) of 11%.
Work on `Cl.O=C(CCC1(Cc2ccncc2)C(=O)N(c2ccccc2)c2ccccc21)c1ccc(F)cc1` (centres undefined) yielded a Release (Rattus norvegicus [1]) of 11%.
`CCOC(=O)CC1(Cc2ccncc2)C(=O)N(c2ccccc2)c2ccccc21.Cl` (centres undefined) gave a Release (Rattus norvegicus [1]) of 21%.
`Cl.O=C(CCCC1(Cc2ccncc2)C(=O)N(c2ccccc2)c2ccccc21)c1ccc(F)cc1` (centres undefined) showed a Release (Rattus norvegicus [1]) of 29%.
Compound `COC(=O)CCC1(Cc2ccncc2)C(=O)N(c2ccccc2)c2ccccc21.Cl` (centres undefined) has a Release (Rattus norvegicus [1]) of 51%.
For `CCOC(=O)/C=C/CC1(Cc2ccncc2)C(=O)N(c2ccccc2)c2ccccc21.Cl` (centres undefined), the Release (Rattus norvegicus [1]) was 41%.
Work on `CCOC(=O)CCCCC1(Cc2ccncc2)C(=O)N(c2ccccc2)c2ccccc21.Cl` (centres undefined) yielded a Release (Rattus norvegicus [1]) of 3%.
`O=C1C(Cc2ccncc2)c2ccccc2N1c1ccccc1` (centres undefined) was tested, and the Release (Rattus norvegicus [1]) was 0%.
Work on `Cl.O=C1N(c2ccccc2)c2ccccc2C1(CCO)Cc1ccncc1` (centres undefined) yielded a Release (Rattus norvegicus [1]) of 12%.
`Cl.N#CCCCC1(Cc2ccncc2)C(=O)N(c2ccccc2)c2ccccc21` (centres undefined) gave a Release (Rattus norvegicus [1]) of 74%.
For `CC(=O)CCCC1(Cc2ccncc2)C(=O)N(c2ccccc2)c2ccccc21.Cl` (centres undefined), the Release (Rattus norvegicus [1]) was 18%.
Work on `Cl.O=C(O)CCCC1(Cc2ccncc2)C(=O)N(c2ccccc2)c2ccccc21` (centres undefined) yielded a Release (Rattus norvegicus [1]) of 0%.
Compound `Cl.N#CCCCCCC1(Cc2ccncc2)C(=O)N(c2ccccc2)c2ccccc21` (centres undefined) has a Release (Rattus norvegicus [1]) of 74%.
For `CCOCCCCC1(Cc2ccncc2)C(=O)N(c2ccccc2)c2ccccc21.Cl` (centres undefined), the Release (Rattus norvegicus [1]) was 17%.
For `CCCS(=O)(=O)CCCCC1(Cc2ccncc2)C(=O)N(c2ccccc2)c2ccc(Cl)cc21.Cl` (centres undefined), the Release (Rattus norvegicus [1]) was 8%.
Work on `CN(C)CCC1(Cc2ccncc2)C(=O)N(c2ccccc2)c2ccccc21.Cl.Cl` (centres undefined) yielded a Release (Rattus norvegicus [1]) of 3%.
`CCCSCCCCC1(Cc2ccncc2)C(=O)N(c2ccccc2)c2ccccc21.Cl` (centres undefined) gave a Release (Rattus norvegicus [1]) of 24%.
Compound `Cl.N#CCCCCCCC1(Cc2ccncc2)C(=O)N(c2ccccc2)c2ccccc21` (centres undefined) has a Release (Rattus norvegicus [1]) of 19%.
For `O=C1N(c2ccccc2)c2ccccc2C1(Cc1ccncc1)Cc1ccncc1` [LINOPIRDINE], the Release (Rattus norvegicus [1]) was 100%.
For `Cl.N#CCCCCC1(Cc2ccncc2)C(=O)N(c2ccccc2)c2ccccc21` (centres undefined), the Release (Rattus norvegicus [1]) was 133%.
Compound `CCOC(=O)CCCC1(Cc2ccncc2)C(=O)N(c2ccccc2)c2ccccc21.Cl` (racemic) has a Release (Rattus norvegicus [1]) of 109%.
Work on `CCCCCCC1(Cc2ccncc2)C(=O)N(c2ccccc2)c2ccccc21` (centres undefined) yielded a Release (Rattus norvegicus [1]) of 6%.
Compound `CCOC(=O)CCCC1(Cc2ccncc2)C(=O)N(c2ccccc2)c2ccccc21.Cl` (stereo in doubt; 8) has a Median retension latency (Rattus norvegicus [2]) of 112, a Median retension latency (Rattus norvegicus [3]) of 201 and a Median retension latency (Rattus norvegicus [4]) of 37.5. It also gave a Median retension latency (Rattus norvegicus [5]) of 34, a Median retension latency (Rattus norvegicus [6]) of 300 and a Median retension latency (Rattus norvegicus [7]) of 136. For the same compound, the Median retension latency (Rattus norvegicus [8]) was 79.5, the Median retension latency (Rattus norvegicus [9]) was 89.5 and the Release (Rattus norvegicus [1]) was 99%.
`Cl.O=C(O)CC1(Cc2ccncc2)C(=O)N(c2ccccc2)c2ccccc21` (centres undefined) showed a Release (Rattus norvegicus [1]) of -2%.
`CC(=O)OCCCCC1(Cc2ccncc2)C(=O)N(c2ccccc2)c2ccccc21.Cl` (centres undefined) was tested, and the Release (Rattus norvegicus [1]) was 27%.
With `CCOC(=O)CCCC1(Cc2ccncc2)C(=O)N(c2ccccc2)c2ccccc21.Cl` (single isomer, unassigned; (-)) the Release (Rattus norvegicus [1]) was 3%.
For `O=C1N(c2ccccc2)c2ccccc2C1(O)Cc1ccncc1` (centres undefined), the Release (Rattus norvegicus [1]) was 8%.
In the case of `Cl.NC(=O)CCCC1(Cc2ccncc2)C(=O)N(c2ccccc2)c2ccccc21` (centres undefined), the Release (Rattus norvegicus [1]) is reported as 26%.

From ChEMBL document CHEMBL1126833, “3-Substituted, 3-(4-pyridinylmethyl)-1,3-dihydro-1-phenyl-2H-indol-2-ones as acetylcholine release enhancers: synthesis and SAR” (J Med Chem, 1993)
